We go through 3 compounds from patent EP3785697A1, “COSMETIC COMPOSITIONS COMPRISING PIPERLONGUMINE” (Unilever N.V., priority 2019, dated 2021).

One series is described as follows: in vitro. To be noted: human, oral keratinocytes.
For series [1] the following is noted: 25°C; cited from earlier work.
The test system of the next series is IL-6. In words: Human immune cell line THP-1 in vitro assay, IL-6 measured by ELISA in supernatant. It counts as cell-based. A general note: In an ELISA, binding on a coated surface is turned into a signal by an enzyme label.
The nature of series [2]: Human immune cell line THP-1 in vitro assay, cell viability. To be noted: thp-1 cells, Cell viability (%).
Method: (§1) In this assay, the concentration of IL-6 (Interleukin-6) and the % cell viability are measured. Widening of therapeutic window is indicated by the concentration of Interleukin-6 (IL-6) as measured on the Human Immune cell Line using the THP-1 invitro assay in pg/ml and the % cell viability of THP-1 cells.
(§2) Cells were differentiated in 24-well plates at the density of 5 x 10^5 cells / well with 100 nM PMA for 72 hours. Cells were then co-treated with E.coli lipopolysaccharides (LPS) and single concentration or a combination of piperlongumine and L-cystine at different doses. After 24 hours, the supernatants were collected for measurement of interleukin (IL)-6 as a pro-inflammatory biomarker using enzyme-linked immunosorbent assay (ELISA).
Series [3] concerns Human oral keratinocytes (HOK). Put plainly: Human oral keratinocytes (HOK) in vitro assay, cell viability by cell counting kit-8. To be noted: Table 3; Piperlongumine 15 µM, HOKs treated with heat killed P.gingivalis, 24 hours; Control 100; 1440 min, 15 µM. For orientation: Formazan colour is commonly taken as a measure of viable cells.
Method: (§3) HOKs (Passage 4-6) were seeded in 96 well-plates at the density of 2 x 10^4 cells / well overnight. On the experimental day the cells were treated with heat killed P.gingivalis and single concentration or a combination of piperlongumine and L-cystine at different doses. After 24 hours, cell viability was measured with cell counting kit-8.
Test in series [4]: as above
Method: as §3
To be noted: human, oral keratinocytes, Cell viability (%), Table 3, Piperlongumine 15 µM, HOKs treated with heat killed P.gingivalis, Control 100.

The next series relates to THP-1 cells. To be noted: human, 24 h, 100 µM.

Converted amounts (≈) assume the structure as drawn.

Method for IL-6: as §1, §2
Method for THP-1 cells: as §1, §2

For orientation: viability means a read-out of living cells in per cent, often relative to untreated cells. With `N[C@@H](CSSC[C@H](N)C(=O)O)C(=O)O` [L-cystine], in “in vitro”, the viability at 24 h, 50 µM was found to be 102% and the viability at 24 h, 100 µM came to 109%. Besides, the Solubility in water in series [1] was 112 µg/mL (≈ 466 µM). Moreover, the “Concentration of IL-6” value in the series with IL-6 (Table 1, L-cystine 100 µM, co-treated with E.coli LPS, 24 hours, Control 98, LPS alone 2252) came out at 1896 pg/mL.
As to `COc1cc(/C=C/C(=O)N2CCC=CC2=O)cc(OC)c1OC` [Piperlongumine, 5,6-dihydro-1-[(2E)-1-oxo-3-(3,4,5-trimethoxyphenyl)-2-propenyl]-2(1 H)-pyridinone], the viability at 24 h, 5 µM in series [2] (Table 1, Piperlongumine 5 µM, co-treated with E.coli LPS, 24 hours, Control 100, LPS alone 91) was 100%. Further, the viability at 24 h, 10 µM in series [2] (Table 1, Piperlongumine 10 µM, co-treated with E.coli LPS, 24 hours, Control 100, LPS alone 91) amounted to 74%; in series [2] (Table 2, Piperlongumine 10 µM, Control 100, LPS alone 86), 39%. The “Concentration of IL-6” value with IL-6 (Table 1, Piperlongumine 5 µM, co-treated with E.coli LPS, 24 hours, Control 98, LPS alone 2252) is 103 pg/mL; with IL-6 (Table 1, Piperlongumine 10 µM, co-treated with E.coli LPS, 24 hours, Control 98, LPS alone 2252), 117 pg/mL; in the series with IL-6 (Table 2, Piperlongumine 10 µM, Control 122, LPS alone 3953), 91 pg/mL. For the same compound, the “Cell viability (%)” value in series [3] stood at 63.38%. Also, the viability at 24 h, 15 µM in series [4] stood at 63.4%.
As for Vitamin E [reference compound], the “Concentration of IL-6” value with IL-6 (Table 2, Vitamin E 100 µM, Control 122, LPS alone 3953) is 2998 pg/mL. In addition, in the series with THP-1 cells, the “Cell viability (%)” value came out at 73%.
